{
  "source": "patent US7811688B2",
  "about": "(Enersol, Inc. N.A., LP, priority 2002, dated 2010)",
  "key": {"human nose [1]": {"tested_on": "human nose", "conditions": "cited from earlier work; for Olfactory Power (pOl): in air, pOl=−log [odorant] as volumetric fraction; for Olfactory Power (p. ol): Table 4"}, "[2]": {"assay": "Odorant vapor pressure and odorant-hydrogen phase equilibrium (Raoult's Law)", "experimental": "To quantitatively validate the concentration of an odorant in the gas phase at high pressure, first order phase equilibrium equations may be used.\nIt is also assumed that the odorant is saturated. This means that at the constant pressure when odorant is added, the amount of odorant in the vapor phase remains constant. The equation used to find the fraction of the vapor phase taken solely by the odorant is Raoult's Law: xAPA^sat=yAP\nWhere, xA is the odorant's fraction of the liquid phase, yA is the odorant's fraction of the vapor phase, PA^sat is the vapor pressure of the saturated odorant, and P is the total pressure within the system.\nWith these values, the concentration of odorant may be found at ambient conditions for the storage conditions of 6,000 psi. To calculate the pressure needed to produce a certain saturated concentration of odorant in the vapor phase: […]"}, "[3]": {"conditions": "@ 25° C.; cited from earlier work"}, "human nose [4]": {"tested_on": "human nose", "assay": "Standard human olfactory power / odor threshold", "type": "in vivo", "conditions": "for Odorant Threshold: minimum detection concentration", "source_text": "Another important property of an odorant is its odor threshold. A suitable odorant should be detectable by the human nose at very low concentrations. […] To ensure simultaneous outflow in case of a leak, both components should be in the same phase and well blended. Some odor threshold values may be found in the Handbook of Hazardous Chemical Properties. In addition, the American Industrial Hygiene Association (AIHA) publishes a book of odor threshold values (Odor Thresholds for Chemicals with Established Occupational Health Standards).\nCertain functional groups, such as the mercaptans, have high potency odors. According to published standardized human olfactory thresholds, mercaptans are among the strongest smelling compounds known. The stench of mercaptans is a key reason why these compounds were chosen for natural gas odorization. The following is a list of functional groups that may be used to highlight key factors for olfactory thresholds in humans. Standard olfactory power refers to the minimum concentration at which a particular compound is detectable by the average person. The mathematical definition is given as the negative log of odorant concentration expressed in volumetric fraction: pOl=−log [odorant]. Based on this definition an olfactory power of “0/6/9” corresponds to “odorlessness/1 ppm/1 ppb” threshold levels, respectively."}, "average weight person": {"tested_on": "average weight person", "conditions": "cited from earlier work"}},
  "note": "Counter-ions that a name gives are not always drawn. Like-named read-outs stand apart in the source and are kept apart here.",
  "data": [
    {"molecule": "CCCO", "note": "[Odorant 1-propanol, 1-propanol]", "values": [
      {"measurement": "Olfactory Power (pOl)", "setting": "human nose [1]", "value": 5.62}
    ]},
    {"molecule": "CC=O", "note": "[acetaldehyde]", "values": [
      {"measurement": "Olfactory Power (pOl)", "setting": "human nose [1]", "value": 6.73}
    ]},
    {"molecule": "CC(C)=O", "note": "[acetone]", "values": [
      {"measurement": "Olfactory Power (pOl)", "setting": "human nose [1]", "value": 4.84}
    ]},
    {"molecule": "CCCC", "note": "[butane]", "values": [
      {"measurement": "Olfactory Power (pOl)", "setting": "human nose [1]", "value": 3.69}
    ]},
    {"molecule": "CCNCC", "note": "[diethylamine]", "values": [
      {"measurement": "Olfactory Power (pOl)", "setting": "human nose [1]", "value": 6.73}
    ]},
    {"molecule": "CC[Se]CC", "note": "[diethylselenide, diethyl selenide]", "values": [
      {"measurement": "Olfactory Power (pOl)", "setting": "human nose [1]", "value": 9.13}
    ]},
    {"molecule": "CCSCC", "note": "[diethylsulfide]", "values": [
      {"measurement": "Olfactory Power (pOl)", "setting": "human nose [1]", "value": 8.41}
    ]},
    {"molecule": "C[Se]C", "note": "[dimethyl selenide]", "values": [
      {"measurement": "Saturated Odorant Concentration yA", "setting": "[2]; @ 6000 psi, 25° C.", "value": 773, "unit": "ppm"},
      {"measurement": "Odorant Vapor Pressure PA^SAT", "setting": "[3]", "value": 4.6, "unit": "psi"}
    ]},
    {"molecule": "CNC", "note": "[dimethylamine, dimethyl amine]", "values": [
      {"measurement": "Saturated Odorant Concentration yA", "setting": "[2]", "value": 4892, "unit": "ppm"},
      {"measurement": "‘B’ Saturated Odorant Loading [6000 psi H2]", "setting": "[2]", "value": 4892, "unit": "ppm"},
      {"measurement": "Odorant Vapor Pressure PA^SAT", "setting": "[3]", "value": 29.4, "unit": "psi"},
      {"measurement": "Odorant Threshold", "setting": "human nose [4]; Table 4", "value": 0.08128, "unit": "ppm"},
      {"measurement": "Olfactory Power (pOl)", "setting": "human nose [1]", "value": 7.09}
    ]},
    {"molecule": "CSC", "note": "[dimethylsulfide]", "values": [
      {"measurement": "Olfactory Power (pOl)", "setting": "human nose [1]", "value": 8.65}
    ]},
    {"molecule": "CC", "note": "[ethane]", "values": [
      {"measurement": "Olfactory Power (pOl)", "setting": "human nose [1]", "value": 2.00}
    ]},
    {"molecule": "CCO", "note": "[ethanol]", "values": [
      {"measurement": "‘B’ Saturated Odorant Loading [6000 psi H2]", "setting": "[2]; PA^sat/P × 10^6 at 6000 psi", "value": 190, "unit": "ppm"},
      {"measurement": "concentration in the vapor phase", "setting": "[2]; at 6000 psi", "value": "≤ 190", "unit": "ppm"},
      {"measurement": "Odorant Threshold", "setting": "human nose [4]; Table 4", "value": 28.840, "unit": "ppm"},
      {"measurement": "Olfactory Power (pOl)", "setting": "human nose [1]", "value": 4.54}
    ]},
    {"molecule": "CCS", "note": "[ethyl mercaptan]", "values": [
      {"measurement": "Saturated Odorant Concentration yA", "setting": "[2]; @ 6000 psi, 25° C.", "value": 1705, "unit": "ppm"},
      {"measurement": "‘B’ Saturated Odorant Loading [6000 psi H2]", "setting": "[2]; PA^sat/P × 10^6 at 6000 psi", "value": 1705, "unit": "ppm"},
      {"measurement": "Odorant Vapor Pressure PA^SAT", "setting": "[3]", "value": 10.2, "unit": "psi"},
      {"measurement": "times higher detectability as compared to ethanol", "setting": "human nose [4]; FIG. 3", "value": "30,000 times"},
      {"measurement": "Odorant Threshold", "setting": "human nose [4]; Table 3", "value": 0.00107, "unit": "ppm"},
      {"measurement": "Odorant Threshold", "setting": "human nose [4]; Table 4", "value": 0.001072, "unit": "ppm"},
      {"measurement": "Olfactory Power (p. ol)", "setting": "human nose [1]", "value": 8.97},
      {"measurement": "Olfactory Power (pOl)", "setting": "human nose [1]", "value": 8.97}
    ]},
    {"molecule": "CC[SeH]", "note": "[ethyl selenol]", "values": [
      {"measurement": "Odorant Vapor Pressure PA^SAT", "setting": "[2]; @ 25° C., estimated value based on known vapor pressures of structurally similar compounds", "value": "~5", "unit": "psi"},
      {"measurement": "Saturated Odorant Concentration yA", "setting": "[2]; @ 6000 psi, 25° C.", "value": "~833", "unit": "ppm"},
      {"measurement": "‘B’ Saturated Odorant Loading [6000 psi H2]", "setting": "[2]; PA^sat/P × 10^6 at 6000 psi", "value": 833, "unit": "ppm"},
      {"measurement": "times higher detectability as compared to ethyl mercaptan", "setting": "human nose [4]; FIG. 3", "value": 67, "unit": "times"},
      {"measurement": "Odorant Threshold", "setting": "human nose [4]; Table 4", "value": 0.000018, "unit": "ppm"},
      {"measurement": "detectability", "setting": "human nose [4]; based on its olfactory power", "value": "1.8E-5", "unit": "ppm"},
      {"measurement": "Olfactory Power (pOl)", "setting": "human nose [1]", "value": 10.74}
    ]},
    {"molecule": "CCN", "note": "[ethylamine, ethyl amine]", "values": [
      {"measurement": "Olfactory Power (pOl)", "setting": "human nose [1]", "value": 6.49}
    ]},
    {"molecule": "CCCl", "note": "[ethylchloride]", "values": [
      {"measurement": "‘B’ Saturated Odorant Loading [6000 psi H2]", "setting": "[2]; PA^sat/P × 10^6 at 6000 psi", "value": 3256, "unit": "ppm"},
      {"measurement": "Odorant Threshold", "setting": "human nose [4]; Table 4", "value": 4.074, "unit": "ppm"},
      {"measurement": "Olfactory Power (pOl)", "setting": "human nose [1]", "value": 5.39}
    ]},
    {"molecule": "CC(C)CS", "note": "[isobutyl mercaptan]", "values": [
      {"measurement": "Olfactory Power (pOl)", "setting": "human nose [1]", "value": 8.95}
    ]},
    {"molecule": "CO", "note": "[methanol]", "values": [
      {"measurement": "Olfactory Power (pOl)", "setting": "human nose [1]", "value": 3.85}
    ]},
    {"molecule": "COC(C)=O", "note": "[methyl acetate]", "values": [
      {"measurement": "Olfactory Power (pOl)", "setting": "human nose [1]", "value": 5.21}
    ]},
    {"molecule": "COC=O", "note": "[methyl formate]", "values": [
      {"measurement": "Olfactory Power (pOl)", "setting": "human nose [1]", "value": 4.03}
    ]},
    {"molecule": "CS", "note": "[methyl mercaptan]", "values": [
      {"measurement": "Olfactory Power (pOl)", "setting": "human nose [1]", "value": 8.98}
    ]},
    {"molecule": "CN", "note": "[methylamine, methyl amine]", "values": [
      {"measurement": "‘B’ Saturated Odorant Loading [6000 psi H2]", "setting": "[2]; PA^sat/P × 10^6 at 6000 psi", "value": 8543, "unit": "ppm"},
      {"measurement": "Odorant Threshold", "setting": "human nose [4]; Table 4", "value": 0.01862, "unit": "ppm"},
      {"measurement": "Olfactory Power (pOl)", "setting": "human nose [1]", "value": 7.73}
    ]},
    {"molecule": "CCSC", "note": "[methylethylsulfide]", "values": [
      {"measurement": "Olfactory Power (pOl)", "setting": "human nose [1]", "value": 8.42}
    ]},
    {"molecule": "CCC", "note": "[propane]", "values": [
      {"measurement": "Olfactory Power (pOl)", "setting": "human nose [1]", "value": 2.57}
    ]},
    {"molecule": "CCCN", "note": "[propylamine, propyl amine]", "values": [
      {"measurement": "Saturated Odorant Concentration yA", "setting": "[2]; @ 6000 psi, 25° C.", "value": 999, "unit": "ppm"},
      {"measurement": "‘B’ Saturated Odorant Loading [6000 psi H2]", "setting": "[2]; PA^sat/P × 10^6 at 6000 psi", "value": 999, "unit": "ppm"},
      {"measurement": "Odorant Vapor Pressure PA^SAT", "setting": "[3]", "value": 6.0, "unit": "psi"},
      {"measurement": "Odorant Threshold", "setting": "human nose [4]; Table 4", "value": 0.01097, "unit": "ppm"},
      {"measurement": "Olfactory Power (pOl)", "setting": "human nose [1]", "value": 7.96}
    ]},
    {"molecule": "c1ccncc1", "note": "[pyridine]", "values": [
      {"measurement": "Saturated Odorant Concentration yA", "setting": "[2]", "value": 67, "unit": "ppm"},
      {"measurement": "maximum concentration in the vapor/gas phase", "setting": "[2]", "value": 67, "unit": "ppm"},
      {"measurement": "‘B’ Saturated Odorant Loading [6000 psi H2]", "setting": "[2]", "value": 67, "unit": "ppm"},
      {"measurement": "Odorant Vapor Pressure PA^SAT", "setting": "[3]", "value": 0.4, "unit": "psi"},
      {"measurement": "Odorant Threshold", "setting": "human nose [4]; Table 4", "value": 0.08511, "unit": "ppm"},
      {"measurement": "Olfactory Power (p. ol)", "setting": "human nose [1]", "value": 7.07}
    ]},
    {"molecule": "[Se]", "note": "[selenium]", "values": [
      {"measurement": "ingested quantity at which selenosis occurs", "setting": "average weight person", "value": 5, "unit": "mg/day"}
    ]},
    {"molecule": "CC(C)(C)S", "note": "[t-butyl mercaptan]", "values": [
      {"measurement": "Saturated Odorant Concentration yA", "setting": "[2]; @ 6000 psi, 25° C.", "value": 583, "unit": "ppm"},
      {"measurement": "maximum concentration in the vapor/gas phase", "setting": "[2]; at 6000 psi", "value": "approximately 580 ppm"},
      {"measurement": "Olfactory Power (pOl)", "setting": "human nose [1]", "value": 9.48}
    ]},
    {"molecule": "CN(C)C", "note": "[trimethyl amine]", "values": [
      {"measurement": "Saturated Odorant Concentration yA", "setting": "[2]; @ 6000 psi, 25° C.", "value": 5172, "unit": "ppm"},
      {"measurement": "Odorant Vapor Pressure PA^SAT", "setting": "[3]", "value": 31.0, "unit": "psi"}
    ]}
  ]
}
